The nature of data set [1]: Plasma protein binding by equilibrium dialysis. To be noted: both sexes, pooled plasma, pH 7.4, human plasma protein binding, read-out: PPB. It counts as in vitro ADME. In a few lines:
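Pooled mixed-gender human plasma spiked with 10 μM compound, dialysed against PBS pH 7.4 for 4 h at 37° C. Both compartments quantified by HPLC-MS/MS; percent bound from plasma versus buffer peak areas.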

In a further data set the target is T1, Trypsin (Bos taurus, UniProt P00760).
T1 construct: gene PRSS1
T1 sequence (P00760 24-246): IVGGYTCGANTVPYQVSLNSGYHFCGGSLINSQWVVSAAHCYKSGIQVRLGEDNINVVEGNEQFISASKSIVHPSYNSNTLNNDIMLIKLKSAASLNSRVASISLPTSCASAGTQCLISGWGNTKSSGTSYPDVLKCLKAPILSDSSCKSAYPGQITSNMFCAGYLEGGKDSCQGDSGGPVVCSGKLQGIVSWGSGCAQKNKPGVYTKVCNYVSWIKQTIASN
Kind of data set: Dose response assay for protease inhibitors: trypsin. It counts as biochemical. To be noted: ratio versus Factor XIa.

Data set [2] in a line: Caco-2 cell permeability assay (A-B and B-A). It counts as in vitro ADME. The settings on record: human; for Papp A→B at 60 min, 10 μM: A-B direction; for Papp B→A at 40 min, 10 μM: B-A direction. In a few lines: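 Caco-2 monolayers were used 21-25 days post-seeding, with compound at 10 μM (1% DMSO) in HBSS-MES pH 6.5 or HBSS-HEPES pH 7.4 on the donor side. Incubation was at 37° C with shaking for 60 min (A−B) or 40 min (B−A). Donor and receiver samples were quantified by HPLC-MS/MS, and Papp and recovery were calculated.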

A further data set deals with T2, Thrombin (Homo sapiens, UniProt P00734).
T2 construct: Thrombin; 0.2 μM in 50% glycerol (7.34 μg/mL)
Kind of data set: Dose response assay for protease inhibitors: thrombin. To be noted: ratio versus Factor XIa. It counts as biochemical.

The next data set deals with T3, Factor Xa (Homo sapiens, UniProt P00742).
T3 construct: Factor Xa; 0.2 μM in 50% glycerol (9.2 μg/mL)
T3 sequence (P00742 235-488 limits assumed): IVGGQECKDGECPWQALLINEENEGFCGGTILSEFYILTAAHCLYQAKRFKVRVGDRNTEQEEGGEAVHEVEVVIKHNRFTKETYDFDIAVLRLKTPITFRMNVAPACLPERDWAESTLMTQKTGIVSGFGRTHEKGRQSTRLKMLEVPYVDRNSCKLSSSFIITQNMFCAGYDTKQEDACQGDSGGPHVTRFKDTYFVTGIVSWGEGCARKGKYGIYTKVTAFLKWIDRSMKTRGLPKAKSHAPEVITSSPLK
T3 sequence (P00742 41-179 partner limits assumed): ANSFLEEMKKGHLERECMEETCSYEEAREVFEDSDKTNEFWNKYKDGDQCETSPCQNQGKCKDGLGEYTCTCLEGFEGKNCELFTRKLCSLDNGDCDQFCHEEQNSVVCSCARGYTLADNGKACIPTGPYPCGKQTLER
Kind of data set: Dose response assay for protease inhibitors: Factor Xa. The settings on record: ratio versus Factor XIa. It counts as biochemical.

Each structure is given as a SMILES string.

Usually Papp A→B stands for the apparent permeability from the apical to the basolateral side of a cell layer. The low end stands for slow passage, the high end for fast passage. As usually defined, the Papp B→A is how fast a substance crosses the layer from the basolateral side. Consider `CC[C@@H](NC(=O)N1C(=O)[C@H](Cc2cc(C)nc(N)c2)[C@H]1C(=O)N(C)c1ccccc1)C1CCCCC1` [Compound 91], for which the fraction unbound at 4 h, 10 μM in data set [1] was 0.05 to 0.09. The “Ratio: Trypsin/FXIa” value on Trypsin is “G (“G” indicates 1-100)”. In data set [2], this compound displayed an apparent permeability from apical to basolateral (Papp A→B) at 60 min, 10 μM of 11 to 30 ×10⁻⁶ cm/s and a Papp B→A at 40 min, 10 μM not above 10 ×10⁻⁶ cm/s. Also, on Thrombin, the “Ratio: Thrombin/FXIa” value is “H (“H” indicates 101-1000)”. Further, the “FXa/FXIa (selectivity ratio)” value on Factor Xa is recorded as “I (“I” indicates >500)”.

In the case of `CC[C@@H](NC(=O)N1C(=O)[C@H](Cc2ccnc(N)c2)[C@H]1C(=O)N(C)c1ccncc1)c1ccccc1Cl` [Compound 95], the fraction unbound at 4 h, 10 μM in data set [1] was 0.05 to 0.09. Besides, on Trypsin, the “Ratio: Trypsin/FXIa” value was “G (“G” indicates 1-100)”. In data set [2], this compound returned a Papp A→B at 60 min, 10 μM not above 10 ×10⁻⁶ cm/s and a Papp B→A at 40 min, 10 μM of 31 to 50 ×10⁻⁶ cm/s. At Thrombin, the “Ratio: Thrombin/FXIa” value is reported as “H (“H” indicates 101-1000)”. The “FXa/FXIa (selectivity ratio)” value on Factor Xa is recorded as “I (“I” indicates >500)”.

As to `CC[C@H](NC(=O)N1C(=O)[C@H](Cc2ccnc(N)c2)[C@H]1C(=O)N(C)c1ccncc1)c1ccccc1C` [Compound 97], the fraction unbound at 4 h, 10 μM in data set [1] lay within 0.1 to 0.5. Besides, the “Ratio: Trypsin/FXIa” value on Trypsin is “G (“G” indicates 1-100)”. Also, in data set [2], the Papp A→B at 60 min, 10 μM was not above 10 ×10⁻⁶ cm/s and the Papp B→A at 40 min, 10 μM fell in the range of 31 to 50 ×10⁻⁶ cm/s. The “Ratio: Thrombin/FXIa” value at Thrombin is listed as “H (“H” indicates 101-1000)”. The “FXa/FXIa (selectivity ratio)” value at Factor Xa is given as “I (“I” indicates >500)”.

`CC[C@@H](NC(=O)N1C(=O)[C@H](Cc2ccnc(N)c2)[C@H]1C(=O)N(C)c1ccncc1)c1cccc(C#N)c1` [Compound 99]: in data set [1], the fraction unbound at 4 h, 10 μM was 0.1 to 0.5. At Trypsin, the “Ratio: Trypsin/FXIa” value is reported as “G (“G” indicates 1-100)”. In data set [2], this compound gave a Papp A→B at 60 min, 10 μM not above 10 ×10⁻⁶ cm/s and a Papp B→A at 40 min, 10 μM of 11 to 30 ×10⁻⁶ cm/s. Also, the “Ratio: Thrombin/FXIa” value on Thrombin is given as “H (“H” indicates 101-1000)”. For the same compound, the “FXa/FXIa (selectivity ratio)” value on Factor Xa is “I (“I” indicates >500)”.

Regarding `CC[C@@H](NC(=O)N1C(=O)[C@H](Cc2ccnc(N)c2)[C@H]1C(=O)N(C)c1ccncc1)c1cccc(OC)c1` [Compound 100], in data set [1], the fraction unbound at 4 h, 10 μM was in the range of 0.1 to 0.5. In addition, the “Ratio: Trypsin/FXIa” value on Trypsin is “G (“G” indicates 1-100)”. Also, in data set [2], the Papp A→B at 60 min, 10 μM was not above 10 ×10⁻⁶ cm/s and the Papp B→A at 40 min, 10 μM was 31 to 50 ×10⁻⁶ cm/s. Moreover, the “Ratio: Thrombin/FXIa” value on Thrombin was “H (“H” indicates 101-1000)”. The “FXa/FXIa (selectivity ratio)” value on Factor Xa is on record as “H (“H” indicates 101-1000)”.

In the case of `CC[C@@H](NC(=O)N1C(=O)[C@H](Cc2cc(C)nc(N)c2)[C@H]1C(=O)N(C)c1ccccc1)c1cccc(Cl)c1` [Compound 120], in data set [1], the fraction unbound at 4 h, 10 μM is less than 0.05. Moreover, the “Ratio: Trypsin/FXIa” value on Trypsin is given as “G (“G” indicates 1-100)”. In data set [2], this compound displayed a Papp A→B at 60 min, 10 μM of 11 to 30 ×10⁻⁶ cm/s and a basolateral-to-apical permeability (Papp B→A) at 40 min, 10 μM not above 10 ×10⁻⁶ cm/s. Further, the “Ratio: Thrombin/FXIa” value on Thrombin is recorded as “H (“H” indicates 101-1000)”. In addition, the “FXa/FXIa (selectivity ratio)” value at Factor Xa is given as “I (“I” indicates >500)”.

Take `CC[C@@H](NC(=O)N1C(=O)[C@H](Cc2ccnc(N)c2)[C@H]1C(=O)N(C)c1ncccn1)c1cccc(Cl)c1` [Compound 121]: the fraction unbound at 4 h, 10 μM in data set [1] lay in the range of 0.05 to 0.09. Also, the “Ratio: Trypsin/FXIa” value on Trypsin is “G (“G” indicates 1-100)”. Moreover, in data set [2], the apical-to-basolateral permeability (Papp A→B) at 60 min, 10 μM is 11 to 30 ×10⁻⁶ cm/s and the Papp B→A at 40 min, 10 μM lay in the range of 11 to 30 ×10⁻⁶ cm/s. Besides, the “Ratio: Thrombin/FXIa” value on Thrombin is reported as “H (“H” indicates 101-1000)”. For the same compound, the “FXa/FXIa (selectivity ratio)” value at Factor Xa is recorded as “I (“I” indicates >500)”.

For `CC[C@@H](NC(=O)N1C(=O)[C@H](Cc2ccnc(NC(=O)OC(C)(C)C)c2)[C@H]1C(=O)N(C)c1ccncc1)c1cccc(Cl)c1` [Compound 127], in data set [1], the fraction unbound at 4 h, 10 μM is less than 0.05. Further, the “Ratio: Trypsin/FXIa” value on Trypsin is “H (“H” indicates 101-1000)”. In data set [2], this compound showed a Papp A→B at 60 min, 10 μM of 11 to 30 ×10⁻⁶ cm/s and a Papp B→A at 40 min, 10 μM not above 10 ×10⁻⁶ cm/s. In addition, the “Ratio: Thrombin/FXIa” value at Thrombin is listed as “H (“H” indicates 101-1000)”. Besides, the “FXa/FXIa (selectivity ratio)” value on Factor Xa is listed as “H (“H” indicates 101-1000)”.

These data come from patent US20190315711A1 (eXIthera Pharmaceuticals, Inc., priority 2016, published 2019).
